Measured values from patent US20190144867A1, “METHOD FOR MITIGATING METASTASIS” (RESEARCH FOUNDATION OF THE CITY UNIVERSITY OF NEW YORK, priority 2015, published 2019).

Tested on: SN12L1 metastatic renal carcinoma cells
Assay: Modified Boyden chamber 3D migration/invasion with interstitial flow
Type: cell-based, human
Conditions: for normalized migration response to interstitial flow with MAPK signaling inhibitors: flow normalized to no-flow controls, FIG. 5; for migration response to interstitial flow following GAG enzymatic cleavage: 4h and 24h exposure to interstitial flow, normalized by no-flow controls
Method: A modified Boyden chamber was used to apply interstitial flow forces to cells in a three-dimensional culture, mimicking those experienced by tumor cells within the interstitium. See Integr Biol (Camb) 2013; 5(11): 1334-43 for details. Briefly, cells were suspended in type I collagen (4 mg/ml), exposed to fluid flow forces via a Darcy flow apparatus (4 h), permitted to migrate for 24 h (without flow) through Transwell chambers (with 8μm pore filters) towards 1 nM TGF-α. Invasion rates were quantified by counting cells present on the underside of the filters. For these tests, only a 4 hour exposure to flow at the lowest shear stress level was applied using a 1 cm H2O hydrostatic pressure differential to drive the flow. Shear stress transmitted to the cell surface through the glycocalyx layer was estimated to be approximately 0.84 dynes/cm^2 and the interstitial flow velocity was 0.83 μm/sec as measured previously, which is in the physiologic range of tumor interstitial flows (0.1-2.0 μm/sec). In addition, baseline migration rates (without flow) for all clonal lines were determined. Based on proliferation rates, HS expression, baseline and flow-mediated migration rates, the CtGFP and shORG-8 cell lines were selected as a paired match for continued experimentation.

O=C1c2ccccc2-c2n[nH]c3cccc1c23 [JNK Inhibitor II, reference compound]
normalized migration response to interstitial flow with MAPK signaling inhibitors: inhibited flow-induced enhancement of migration

C[S+]([O-])c1ccc(-c2nc(-c3ccncc3)c(-c3ccc(F)cc3)[nH]2)cc1 (stereo not shown) [SB 203580, reference compound]
normalized migration response to interstitial flow with MAPK signaling inhibitors: inhibited flow-induced enhancement of migration

hyaluronidase
migration response to interstitial flow following GAG enzymatic cleavage (FIG. 4): greatly suppressed
migration response to interstitial flow following GAG enzymatic cleavage (FIG. 4, listed as Hyaluronidase): significantly inhibit

heparinase III
migration response to interstitial flow following GAG enzymatic cleavage (FIG. 4): greatly suppressed
migration response to interstitial flow following GAG enzymatic cleavage (FIG. 4, listed as heparinase): significantly inhibit

N#CC(=C(/N)Sc1ccccc1N)/C(C#N)=C(\N)Sc1ccccc1N [U0126, reference compound]
normalized migration response to interstitial flow with MAPK signaling inhibitors: inhibited flow-induced enhancement of migration
